{"source": "paper PMC1448180", "about": "“Small-molecule and mutational analysis of allosteric Eg5 inhibition by monastrol” (BMC Chemical Biology, 2006)", "key": {"[1]": {"target": "T1, hEg5-367H (Y211M) (Homo sapiens, UniProt P52732, Y211M)", "T1 sequence (P52732 1-367 Y211M)": "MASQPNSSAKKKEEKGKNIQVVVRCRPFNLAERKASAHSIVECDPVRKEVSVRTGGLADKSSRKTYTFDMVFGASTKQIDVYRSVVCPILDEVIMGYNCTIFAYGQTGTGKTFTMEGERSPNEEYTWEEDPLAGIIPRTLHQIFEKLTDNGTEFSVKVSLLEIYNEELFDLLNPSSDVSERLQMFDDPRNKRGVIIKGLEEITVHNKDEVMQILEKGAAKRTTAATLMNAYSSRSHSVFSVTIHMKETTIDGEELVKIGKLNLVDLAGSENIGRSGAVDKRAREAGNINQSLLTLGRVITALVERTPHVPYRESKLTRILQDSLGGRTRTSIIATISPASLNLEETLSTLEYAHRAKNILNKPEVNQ", "experiment": "ATP hydrolysis by Eg5 motor domain mutant Y211M", "assay_type": "biochemical", "settings": "Figure 4B; legend: basal ATP hydrolysis; read-out: IC50(μM) of monastrol, (Y211M)", "text": "(§1) Figure 4 Mutagenesis of the monastrol binding site in human Eg5. (A) Design of mutations in the human Eg5 motor domain. Amino acid side chains that are not conserved between Eg5 and conventional kinesin were targeted, either introducing chimeric or rationally designed mutations (asterix for targeted point mutants) to test the contribution of residues to the drug-sensitivity of Eg5. (B) Steady-state enzymatic parameters for engineered human Eg5 motor domain mutants. Steady-state ATP hydrolysis by Eg5 was measured using an NADH-enzyme coupled assay varying the concentration of ATP, microtubules, or monastrol to obtain the microtubule concentration for half-maximal stimulation (K0.5MT), the maximal rate of microtubule-stimulated ATP hydrolysis (kcat), and the concentration of monastrol that inhibits basal ATP hydrolysis by 50 % (IC50), as described.\n(§2) We used a modified PCR mutagenesis protocol to introduce mutations into hEg5-367H, a plasmid encoding the C-terminally His6-tagged motor domain (amino acid residues 1–367) of human Eg5. […]\n(§3) ATP hydrolysis by recombinantly expressed kinesin motor domains was measured using an NADH-enzyme coupled assay. ATP hydrolysis was measured in KC25 buffer supplemented with 5 μM taxol, 1 mM ATP-KOH (pH 7.0), the appropriate concentration of motor domain, and the appropriate concentrations of taxol-polymerized microtubules."}, "[2]": {"test_system": "human Eg5", "set-up": "method as in PMID 10542155, PMID 10973989", "settings": "cited from earlier work"}, "[3]": {"test_system": "BimC", "set-up": "method as in PMID 12525161", "settings": "cited from earlier work"}, "[4]": {"test_system": "KC167 cells", "experiment": "Spindle phenotype of Drosophila cells treated with monastrol", "assay_type": "cell-based, D. melanogaster", "settings": "data not shown", "text": "Monastrol binds a hydrophobic pocket between loop 5 and α3 that is poorly conserved among kinesins, resulting in specificity for vertebrate Eg5 homologs. […] Monastrol is known to inhibit human and Xenopus Eg5 [7, 9], but not BimC [27]. To test its effect on D. rerio Eg5 and Klp-61F, we treated AB9 and KC167 cells with monastrol. […] To obtain unambiguous evidence, we cloned the motor domain of Klp-61F and subjected the recombinant protein to ATPase assays in the presence or absence of microtubules.\n(§4) Conditions for growing the following cell lines are as described: D. rerio AB9 (37), D. melanogaster KC167 [38], and BS-C-1 green monkey kidney cells. For immunofluorescence microscopy, cells were grown on 12 mm circular coverslips to 30 % confluence, treated medium supplemented with drug and 0.2% DMSO, or a DMSO alone, for 6 hours, fixed with formaldehyde, and stained for DNA and microtubules, as described. D. melanogaster KC167 cells were cultured in Schneider's Drosophila Medium (GIBCO) whereas D. rerio AB9 cells and BS-C-1 green monkey kidney cells were cultured at 37°C in Dulbecco's Minimal medium in the presence of 10 % heat inactivated fetal calf serum."}, "[5]": {"test_system": "Xenopus Eg5", "set-up": "method as in PMID 10542155, PMID 10973989", "settings": "cited from earlier work"}, "[6]": {"target": "T2, Klp61F-364H (Drosophila melanogaster, UniProt P46863)", "T2 construct": "His6 (C); made in house; host or cells: vector pRSETa", "T2 sequence (P46863 1-364)": "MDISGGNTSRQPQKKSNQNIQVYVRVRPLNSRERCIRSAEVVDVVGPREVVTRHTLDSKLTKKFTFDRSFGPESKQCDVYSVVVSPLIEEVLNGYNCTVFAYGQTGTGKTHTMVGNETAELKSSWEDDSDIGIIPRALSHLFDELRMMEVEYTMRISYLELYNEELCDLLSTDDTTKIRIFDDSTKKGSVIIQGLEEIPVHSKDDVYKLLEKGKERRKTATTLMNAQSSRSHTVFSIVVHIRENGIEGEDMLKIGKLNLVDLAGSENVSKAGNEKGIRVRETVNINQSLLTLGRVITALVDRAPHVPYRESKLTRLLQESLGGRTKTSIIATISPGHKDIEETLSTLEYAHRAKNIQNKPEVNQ", "experiment": "ATP hydrolysis by Klp-61F motor domain (NADH-enzyme coupled assay)", "assay_type": "biochemical, D. melanogaster", "experimental": "Each data point is the average of three independent experiments.\nas §3"}, "[7]": {"target": "T3, hEg5-367H (R119L) (Homo sapiens, UniProt P52732, R119L)", "T3 sequence (P52732 1-367 R119L)": "T1 sequence (P52732 1-367 Y211M) with R119L, M211Y", "experiment": "ATP hydrolysis by Eg5 motor domain mutant R119L", "assay_type": "biochemical", "settings": "Figure 4B; legend: basal ATP hydrolysis; read-out: IC50(μM) of monastrol, (R119L)", "text": "as §1, §2, §3"}, "[8]": {"test_system": "BS-C-1 cells", "experiment": "Monoaster formation in tissue culture cells (manual count of mitotic cells)", "assay_type": "cell-based, green monkey", "settings": "Chlorocebus sabaeus, BSC-1, 6 h, read-out: Cells: monoaster formation score (drug concentration with roughly equal monastral and bipolar spindles)", "experimental": "Figure 2 Structure-activity relationship of monastrol derivatives. (A) Scheme depicting the Biginelli condensation, a one-pot reaction for preparing monastrol derivatives. […] Each data point is the average of three independent experiments. […] Each cell-based assay was performed in duplicate.\nas §4"}}, "note": "Where a chain is given by its changes, count along the chain named."}
{"compound": "CCOC(=O)C1=C(C)NC(=S)NC1c1cccc(O)c1", "note": "(centres unmarked) [Monastrol]", "values": [{"measurement": "IC50", "setting": "[1]", "result": "0.8 ± 0.3", "unit": "µM"}, {"measurement": "Inhibition of human Eg5", "setting": "[2]", "result": "inhibit"}, {"measurement": "Inhibition of BimC", "setting": "[3]", "result": "not"}, {"measurement": "Effect on spindles in Drosophila cells", "setting": "[4]", "result": "normal, bipolar spindles"}, {"measurement": "Inhibition of Xenopus Eg5", "setting": "[5]", "result": "inhibit"}, {"measurement": "Inhibition of microtubule-stimulated ATP hydrolysis by Klp-61F motor domain, in words", "setting": "[6]", "result": "weakly inhibited"}, {"measurement": "IC50", "setting": "[7]", "result": "17 ± 2", "unit": "µM"}, {"measurement": "EC50", "setting": "[8]", "result": "< 50", "unit": "µM"}]}
